# Values joined by “and” are separate entries in the source; they are usually repeats but may differ in a detail not shown here. Equal entries are not always repeated.
# What was measured:
# platelets [1] = assay: Ex vivo platelet aggregation after peptide injection in canine coronary thrombosis model; design: species or system dog; conditions: for Ex vivo reduction of aggregation relative to control levels: 3 mg/kg
# Method: For all ex vivo studies (see FIG. 3), control aggregation values were standardized to the percentages of light transmission observed in PRP and PPP samples (0% and 100%, respectively).
# (§1) Animals were randomly assigned to two treatment groups: vehicle control (i.e., normal saline) or RGD peptides at various concentrations. Peptides were administered intra-atrially in both bolus and continuous injections. […] A continuous infusion of the same peptide was then started immediately after completion of this initial injection. Animals that received a 5 mg/kg bolus. also received a 5 mg/kg/hr infusion, whereas animals that received a 10 mg/kg bolus also received a 10 mg/kg/hr infusion. The anti-thrombotic effects of the peptides were monitored until 30 minutes after the occurrence of a persistent, occlusive thrombus or five hours after the initiation of electrical stimulation (whichever resulted first). If an occlusive thrombus had not developed within four hours after the initiation of current, the peptide infusion was stopped.
# Platelet counts and ex vivo aggregation studies were performed one hour before and 1, 3, and 5 hours after application of anodal direct current.
# Platelet aggregation was also determined ex vivo at one, three, and five hours after current application. […]
# The average aggregation values determined in these studies for all of the peptide treatments are depicted in FIG. 3. […] The control responses in these studies were 70-80% of maximum. […] Here the control responses were 55-80% of maximum.
# [2] = test system: Electrically induced canine coronary thrombosis; assay: Electrically induced canine coronary thrombosis, time to full occlusion; assay type: in vivo, dog
# Method: Male mongrel dogs weighing 14 to 20 kg were selected based on proper aggregation of their platelets in response to arachidonic acid, collagen, and adenosine disphosphate (ADP) and based on similar weights and hemodynamic properties.
# Before surgery, the animals were anesthetized with sodium pentobarbital (30 mg/kg, i.v.) and then intubated and ventilated on room air with positive pressure using a respirator (Harvard Apparatus, S. Natick, Mass.) at a volume of 30 ml/kg and a frequency of 12 breaths/min. Surgery, performed under aseptic conditions, was begun with the placement of cannulae into the left carotid artery and jugular vein for monitoring arterial blood pressure (Statham P23 pressure transducer, Gould, Inc., Cardiovascular Products, Oxnard, Calif.) and administering intravenous fluids.
# The heart was exposed via a left thoracotomy through the 5th intercostal space. A 2-cm segment of the left circumflex coronary artery (LCCA) was isolated from surrounding tissue by blunt dissection. […] The intra-coronary electrode was constructed by attaching a 25-gauge hypodermic needle tip to a 30-gauge Teflon-insulated silver-coated copper wire. The mechanical occluder was constructed of stainless steel in a C shape with a Teflon screw (2 mm diameter) on top. It was adjusted to control vessel circumference and decrease the reactive hyperemic flow due to a 10-sec (full) occlusion by 50-70% without affecting basal coronary blood flow (FIG. 1). A monopolar epicardial electrode was sutured to the surface of the ventricle in the region of LCCA distribution to monitor ischemic changes in the electrocardiogram (ECG). The left atrium was cannulated with polythylene tubing for administration of the peptide. Continuous recordings of blood pressure, limb lead II ECG, epicardial electrogram, and mean and phasic LCCA blood flow were obtained on a Model 7 polygraph (Grass Instrument Co., Quincy, Mass.).
# One hour after the completion of surgery, a 100 micro-amp continuous anodal direct current delivered from a 9 volt nickel-cadmium battery was applied to the intimal surface of the LCCA. The anode of the battery was in series with a 250,000 ohm potentiometer and the intraluminal coronary artery electrode. The electric circuit was completed by placing the cathode in a subcutaneous site. Electrical stimulation was applied for three hours. At the conclusion of each experiment, the heart was fibrillated electrically and quickly removed, and the LCCA was dissected free as far as possible to verify the position of the implanted anodal electrode.
# as §1
# Coronary thrombosis was quantified as the time to full occlusion. The effects of the various peptide treatments on coronary thrombosis is illustrated in FIG. 4.
# platelets [3] = assay: Ex vivo ADP-stimulated platelet aggregation in baboon PRP; conditions: animal 2; ADP 10 μm; PRP at 0, 1 and 2 hours
# Method: At one- and two-hour time points, template bleeding times were measured, and blood samples were drawn to assess the hematology aggregation studies. Platelet aggregation studies were performed as described in Example V using ADP as the stimulus.
# In addition, platelet aggregation studies were conducted on PRP derived from the second animal. Whole blood was drawn at three time points (0, 1 and 2 hours) of both control and experimental shunts.
# [4] = biological target: T1, Fibronectin receptor (Fn-R) (Homo sapiens, UniProt P05556+P08648); assay: Competitive ELISA for fibronectin receptor binding; conditions: purified receptor from human placenta, read-out: FnR Binding (IC50)
# T1 construct: similarly purified from (100 mM) octyl glucoside-extracted human placenta; from tissue; host or cells: human placenta
# T1 sequence (P08648 42-894 limits assumed): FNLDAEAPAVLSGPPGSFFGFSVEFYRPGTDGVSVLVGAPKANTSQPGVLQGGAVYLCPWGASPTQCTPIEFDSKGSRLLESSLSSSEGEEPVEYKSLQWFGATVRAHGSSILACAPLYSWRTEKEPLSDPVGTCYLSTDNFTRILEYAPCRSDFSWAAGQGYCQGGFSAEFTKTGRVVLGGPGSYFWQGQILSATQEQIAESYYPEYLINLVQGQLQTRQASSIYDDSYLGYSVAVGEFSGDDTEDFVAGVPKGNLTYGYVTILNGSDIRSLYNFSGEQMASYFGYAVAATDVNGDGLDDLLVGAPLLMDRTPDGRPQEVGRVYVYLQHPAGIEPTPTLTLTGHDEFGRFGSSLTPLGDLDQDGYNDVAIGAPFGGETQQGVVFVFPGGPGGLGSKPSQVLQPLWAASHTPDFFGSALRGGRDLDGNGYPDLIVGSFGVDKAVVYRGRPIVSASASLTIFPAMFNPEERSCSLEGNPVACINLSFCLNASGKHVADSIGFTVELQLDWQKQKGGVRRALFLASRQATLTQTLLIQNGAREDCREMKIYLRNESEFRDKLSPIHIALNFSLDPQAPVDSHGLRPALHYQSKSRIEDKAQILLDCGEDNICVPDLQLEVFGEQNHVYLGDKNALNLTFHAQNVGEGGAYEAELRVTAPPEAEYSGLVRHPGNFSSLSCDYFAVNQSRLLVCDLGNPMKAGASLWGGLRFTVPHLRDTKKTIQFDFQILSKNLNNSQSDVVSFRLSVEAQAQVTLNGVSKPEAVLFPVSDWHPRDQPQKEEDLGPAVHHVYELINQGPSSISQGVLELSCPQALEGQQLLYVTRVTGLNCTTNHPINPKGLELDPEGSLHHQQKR
# T1 sequence (P08648 895-1049 partner limits assumed): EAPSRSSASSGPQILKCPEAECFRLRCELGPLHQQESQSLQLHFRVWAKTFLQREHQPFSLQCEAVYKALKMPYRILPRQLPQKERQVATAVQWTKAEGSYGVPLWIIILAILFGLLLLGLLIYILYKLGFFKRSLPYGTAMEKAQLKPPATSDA
# T1 sequence (P05556 21-798): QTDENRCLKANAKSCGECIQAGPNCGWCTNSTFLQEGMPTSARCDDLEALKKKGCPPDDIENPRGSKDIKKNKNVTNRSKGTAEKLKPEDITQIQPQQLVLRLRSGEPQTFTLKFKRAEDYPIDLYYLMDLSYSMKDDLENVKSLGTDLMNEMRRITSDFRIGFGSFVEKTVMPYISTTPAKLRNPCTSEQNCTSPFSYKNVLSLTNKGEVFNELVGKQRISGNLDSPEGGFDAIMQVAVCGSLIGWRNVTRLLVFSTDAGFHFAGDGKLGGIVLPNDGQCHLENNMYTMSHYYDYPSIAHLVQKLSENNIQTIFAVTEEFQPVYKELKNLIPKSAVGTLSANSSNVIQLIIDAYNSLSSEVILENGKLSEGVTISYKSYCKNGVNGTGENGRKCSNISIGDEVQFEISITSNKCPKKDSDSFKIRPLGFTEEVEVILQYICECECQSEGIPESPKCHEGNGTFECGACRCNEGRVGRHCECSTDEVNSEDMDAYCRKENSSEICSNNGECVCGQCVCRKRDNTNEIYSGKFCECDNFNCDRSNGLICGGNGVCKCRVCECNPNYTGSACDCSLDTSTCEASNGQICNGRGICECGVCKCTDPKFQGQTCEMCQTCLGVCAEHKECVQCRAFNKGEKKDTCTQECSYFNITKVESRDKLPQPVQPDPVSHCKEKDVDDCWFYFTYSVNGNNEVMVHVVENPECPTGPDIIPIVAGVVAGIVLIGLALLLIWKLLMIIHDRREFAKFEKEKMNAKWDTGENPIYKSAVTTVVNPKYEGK
# Method: Peptide binding to purified Fn-R was determined by using a competitive enzyme-linked immunosorbent assay (ELISA) in which fibronectin is immobilized and the binding of solubilized Fn-R is detected with labeled anti-FnR antibodies in the presence of various concentrations of peptide analogue.
# Microtiter plates were coated with 110 μl of human fibronectin (at 2 μg/ml) in TBS. The plates were washed three times with TBS that contained 0.05% Tween 20. If necessary, peptides were added after this washing in 10 microliter aliquots. The fibronectin receptor was then added in 2-fold serial dilutions with TBS containing 20 mM octyl glucoside and 2 mM MnCl2. The plates were incubated for three hours at room temperature, washed with 200 μl of the above TBS-Tween buffer. 100 μl of affinity-purified rabbit anti-human fibronectin receptor antibody was added to the wells and the plates were incubated for an additional two hours, washed twice with TBS-Tween and then distilled water. Affinity-purified goat anti-rabbit IgG conjugated to horseradish peroxidase (100 μl) was then added to each well. Bonding reactions were incubated for 16 hours at room temperature. The following day, the plates were washed twice with TBS-Tween and then distilled water. […]
# IC50 s for FnR were determined by ELISA (Example III).
# [5] = 10 mg/kg injection, all three time points
# [6] = 10 mg/kg bolus + 10 mg/kg/hr infusion, intra-atrial
substance,measurement,setting,value
GPenGHRGDLRCA,Ex vivo inhibition of ADP-stimulated aggregation,"platelets [1]; 10 mg/kg injection, 1, 3 and 5 h",substantially inhibited
same,Ex vivo inhibition of AA-stimulated aggregation relative to control levels,platelets [1]; [5],43-70%
same,Ex vivo inhibition of collagen-stimulated aggregation relative to control levels,platelets [1]; [5],12-50%
same,Effect on time to full coronary occlusion,[2]; [6],did not significantly influence
same,Ex vivo platelet response to ADP,platelets [3],completely unresponsive
RPenGHRGDWRCR,Ex vivo inhibition of platelet activation by collagen,platelets [1]; 5 mg/kg injection,near-maximal inhibition
same,Ex vivo platelet response to ADP and AA,"platelets [1]; 5 mg/kg injection, all three time points",completely unresponsive
same,Ex vivo anti-aggregation effect at low platelet count,"platelets [1]; 5 mg/kg injection, platelet count ca. one-third of normal (104,000/ml vs. 361,000/ml)",more pronounced
same,Effect on time to full coronary occlusion,"[2]; 5 mg/kg bolus + 5 mg/kg/hr infusion, intra-atrial",significantly prolonged the time to occlusion
same,Thrombus formation in animals with low platelet levels,"[2]; 5 mg/kg, circulating platelet levels one-third of normal",able to prevent thrombus formation
same,Effect on time to full coronary occlusion,[2]; [6],completely prevented occlusion
RPenGRGDWPCR,Ex vivo reduction of aggregation relative to control levels,platelets [1]; one hour,20-58%
same,Ex vivo reduction of aggregation relative to control levels,"platelets [1]; three and five hours, listed as 4R",75-100% and 72-100%
same,Ex vivo platelet response to all modes of stimulation,"platelets [1]; 10 mg/kg injection, all time points",unresponsive to all modes of stimulation
same,Effect on time to full coronary occlusion,[2]; 3 mg/kg,ineffective
same,Effect on time to full coronary occlusion,[2]; [6],prevented occlusion throughout the duration of the study
VRGDSPDG,IC50,[4],0.04 µM
YRGDSPDG,IC50,[4],1.1 µM
